From PubChem BioAssay AID248 (DTP/NCI, 2004)
Values joined by “and” are separate entries in the source; they are usually repeats but may differ in a detail not shown here. Equal values may be shown once. Inconclusive results and toxic doses are left out. No stated cut-off is given here; in the data, active means T/C of 150% or more; inactive means T/C below 125%.

System: L1210 leukemia ip in BDF1 mice, survival T/C
Test: NCI In Vivo Anticancer Drug Screen. Data for tumor model L1210 Leukemia (intraperitoneal) in B6D2F1 (BDF1) mice
Settings: endpoint: mean survival time, higher = longer survival
Procedure, shortened: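 Ratio derived from survival: compound-dosed mice over vehicle-dosed mice, all bearing a transplantable tumor.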

[1] = dose: 100.0 mg/kg/injection, schedule: Q01DX001 (ip), vehicle: carboxymethylcellulose (CMC)
[2] = dose: 200.0 mg/kg/injection, schedule: Q01DX001 (ip), vehicle: carboxymethylcellulose (CMC)
[3] = dose: 100.0 mg/kg/injection, schedule: Q04DX003 (ip), vehicle: Klucel (hydroxypropylcellulose) (HPC)
[4] = dose: 200.0 mg/kg/injection, schedule: Q04DX003 (ip), vehicle: Klucel (hydroxypropylcellulose) (HPC)
[5] = dose: 400.0 mg/kg/injection, schedule: Q04DX003 (ip), vehicle: Klucel (hydroxypropylcellulose) (HPC)
[6] = dose: 50.0 mg/kg/injection, schedule: Q01DX009 (ip), vehicle: saline with Tween-80
[7] = dose: 100.0 mg/kg/injection, schedule: Q01DX009 (ip), vehicle: saline with Tween-80
[8] = dose: 100.0 mg/kg/injection, schedule: Q04DX003 (ip), vehicle: saline with Tween-80
[9] = dose: 200.0 mg/kg/injection, schedule: Q01DX009 (ip), vehicle: saline with Tween-80
[10] = dose: 200.0 mg/kg/injection, schedule: Q04DX003 (ip), vehicle: saline with Tween-80
[11] = dose: 400.0 mg/kg/injection, schedule: Q04DX003 (ip), vehicle: saline with Tween-80
[12] = dose: 12.5 mg/kg/injection, schedule: Q01DX009 (ip), vehicle: saline with Tween-80
[13] = dose: 25.0 mg/kg/injection, schedule: Q01DX009 (ip), vehicle: saline with Tween-80
[14] = dose: 100.0 mg/kg/injection, schedule: Q01DX001 (ip), vehicle: saline with Tween-80
[15] = dose: 200.0 mg/kg/injection, schedule: Q01DX001 (ip), vehicle: saline with Tween-80

Measured: T/C

CCc1nc(N)nc(N)c1-c1ccc(Cl)cc1.[O]=[Zn]
inactive: dose: 15.0 mg/kg/injection, schedule: Q01DX015 (ip), vehicle: carboxymethylcellulose (CMC) 96 % of control | dose: 30.0 mg/kg/injection, schedule: Q01DX015 (ip), vehicle: carboxymethylcellulose (CMC) 96 % of control | dose: 60.0 mg/kg/injection, schedule: Q01DX015 (ip), vehicle: carboxymethylcellulose (CMC) 123 % of control | [1] 92 % of control | dose: 120.0 mg/kg/injection, schedule: Q01DX015 (ip), vehicle: carboxymethylcellulose (CMC) 124 % of control | [2] 93 % of control

CCOC(=O)C1C2OC(=O)C(C(=O)C2P2(=O)OCCN2CCCl)C1c1ccc(OC(C)=O)cc1 (stereo not given)
inactive: [3] 108 % of control | [4] 95 % of control | [5] 108 % of control

Cc1ccc(CNc2ccc([N+](=O)[O-])cc2)cc1
inactive: [6] 92 % of control | [7] 103 % of control | [8] 93 % of control | [9] 97 % of control | [10] 101 % of control | [11] 88 % of control

NC(N)=NCCCCNCCCN=C(N)N
inactive: dose: 75.0 mg/kg/injection, schedule: Q01DX001 (ip), vehicle: saline 98 % of control | dose: 150.0 mg/kg/injection, schedule: Q01DX001 (ip), vehicle: saline 107 % of control

NC1CCCN(Cc2ccccc2)C1 (stereo not given)
inactive: dose: 75.0 mg/kg/injection, schedule: Q04DX003 (ip), vehicle: saline 104 % of control | dose: 150.0 mg/kg/injection, schedule: Q04DX003 (ip), vehicle: saline 100 % of control

O=C1C=CC(=O)N1CO
inactive: dose: 2.5 mg/kg/injection, schedule: Q01DX009 (ip), vehicle: saline 91 % of control | dose: 2.5 mg/kg/injection, schedule: Q04DX003 (ip), vehicle: saline 96 % of control | dose: 5.0 mg/kg/injection, schedule: Q01DX009 (ip), vehicle: saline 94 % of control | dose: 5.0 mg/kg/injection, schedule: Q04DX003 (ip), vehicle: saline 98 % of control | dose: 10.0 mg/kg/injection, schedule: Q04DX003 (ip), vehicle: saline 91 % of control

O=C1C(Br)(Br)CCCCC1(c1ccccc1)c1ccccc1
inactive: [8] 101 % of control | [10] 103 % of control | [11] 87 % of control

O=[N+]([O-])c1cnccc1/C=C\c1ccccc1
inactive: dose: 100.0 mg/kg/injection, schedule: Q01DX001 (ip), vehicle: Klucel (hydroxypropylcellulose) (HPC) 86 % of control | dose: 200.0 mg/kg/injection, schedule: Q01DX001 (ip), vehicle: Klucel (hydroxypropylcellulose) (HPC) 105 % of control | dose: 400.0 mg/kg/injection, schedule: Q01DX001 (ip), vehicle: Klucel (hydroxypropylcellulose) (HPC) 94 % of control

CCOc1ccc(N=NS(=O)(=O)O)cc1
inactive: dose: 1.25 mg/kg/injection, schedule: Q01DX009 (ip), vehicle: saline with Tween-80 94 % of control | dose: 2.5 mg/kg/injection, schedule: Q01DX009 (ip), vehicle: saline with Tween-80 91 % of control | dose: 5.0 mg/kg/injection, schedule: Q01DX009 (ip), vehicle: saline with Tween-80 94 % of control

CCC(=O)N(CC)CC
inactive: dose: 50.0 mg/kg/injection, schedule: Q01DX001 (ip), vehicle: saline 102 % of control | dose: 100.0 mg/kg/injection, schedule: Q01DX001 (ip), vehicle: saline 93 % of control | dose: 400.0 mg/kg/injection, schedule: Q01DX001 (ip), vehicle: saline 93 % of control

CC1(C)N=C(N)N=C(N)N1c1ccc(CCCCc2ccc(Cl)cc2Cl)cc1
inactive: dose: 5.0 mg/kg/injection, schedule: Q01DX001 (ip), vehicle: saline 88 % of control | dose: 10.0 mg/kg/injection, schedule: Q01DX001 (ip), vehicle: saline 92 % of control | dose: 20.0 mg/kg/injection, schedule: Q01DX001 (ip), vehicle: saline 103 % of control

CC(C)(C#N)NC(=O)NC(C)(C)C#N
inactive: [6] 101 % of control | [7] 97 % of control | [9] 97 % of control

O=C(CNC(=O)NCc1ccccc1)N/N=C/c1cccc([N+](=O)[O-])c1
inactive: [12] 91 % of control | [13] 88 % of control | [6] 92 % of control and 88 % of control

CCCCCCCCCCC(CCCCCCCCCC)CC(C)(C)C
inactive: dose: 50.0 mg/kg/injection, schedule: Q01DX001 (ip), vehicle: saline with Tween-80 103 % of control | [14] 96 % of control | [15] 103 % of control

Nc1ncnc(N)c1NC(=O)c1ccc(C(=O)c2ccccc2)cc1
inactive: [3] 100 % of control | [4] 94 % of control | [5] 94 % of control

CCN(CC)C(=O)Oc1cccc(NC(=O)OC)c1
inactive: [14] 94 % of control | [15] 94 % of control | dose: 400.0 mg/kg/injection, schedule: Q01DX001 (ip), vehicle: saline with Tween-80 100 % of control

CC(C)=CCNC(=O)NS(=O)(=O)c1ccc(C)cc1
inactive: dose: 50.0 mg/kg/injection, schedule: Q04DX002 (ip), vehicle: Klucel (hydroxypropylcellulose) (HPC) 104 % of control | dose: 100.0 mg/kg/injection, schedule: Q01DX009 (ip), vehicle: Klucel (hydroxypropylcellulose) (HPC) 100 % of control | dose: 100.0 mg/kg/injection, schedule: Q04DX002 (ip), vehicle: Klucel (hydroxypropylcellulose) (HPC) 89 % of control | dose: 200.0 mg/kg/injection, schedule: Q01DX009 (ip), vehicle: Klucel (hydroxypropylcellulose) (HPC) 107 % of control | dose: 200.0 mg/kg/injection, schedule: Q04DX002 (ip), vehicle: Klucel (hydroxypropylcellulose) (HPC) 93 % of control | dose: 400.0 mg/kg/injection, schedule: Q01DX009 (ip), vehicle: Klucel (hydroxypropylcellulose) (HPC) 96 % of control

O=[N+]([O-])c1ccc(N/N=C/CCl)c([N+](=O)[O-])c1
inactive: dose: 6.25 mg/kg/injection, schedule: Q01DX009 (ip), vehicle: saline with Tween-80 94 % of control and 98 % of control | dose: 6.25 mg/kg/injection, schedule: Q04DX003 (ip), vehicle: saline with Tween-80 99 % of control | [12] 102 % of control and 105 % of control | dose: 12.5 mg/kg/injection, schedule: Q04DX003 (ip), vehicle: saline with Tween-80 87 % of control | [13] 98 % of control and 103 % of control | dose: 25.0 mg/kg/injection, schedule: Q04DX003 (ip), vehicle: saline with Tween-80 91 % of control

OCC1OC(n2cnc3c(NO)ncnc32)CC1O (stereo not given)
inactive: dose: 50.0 mg/kg/injection, schedule: Q01DX001 (ip), vehicle: carboxymethylcellulose (CMC) 102 % of control | [1] 109 % of control | [2] 109 % of control | dose: 400.0 mg/kg/injection, schedule: Q01DX001 (ip), vehicle: carboxymethylcellulose (CMC) 109 % of control

CC1C(=O)OCC1C(c1ccccc1)(c1ccccc1)c1ccccc1 (stereo not given)
inactive: dose: 100.0 mg/kg/injection, schedule: Q04DX002 (ip), vehicle: gum acacia 100 % of control | dose: 200.0 mg/kg/injection, schedule: Q04DX002 (ip), vehicle: gum acacia 103 % of control | dose: 400.0 mg/kg/injection, schedule: Q04DX002 (ip), vehicle: gum acacia 89 % of control

CC1(C)OC2C(C(=O)NO)OC(n3cnc4c(N)ncnc43)C2O1 (stereo not given)
inactive: dose: 100.0 mg/kg/injection, schedule: Q01DX005 (ip), vehicle: saline 101 % of control | dose: 200.0 mg/kg/injection, schedule: Q01DX005 (ip), vehicle: saline 101 % of control

N#CC1=C(N)CCCC1
inactive: [8] 104 % of control

O=C1OC2CCCCC2c2ccccc21 (stereo not given)
inactive: [7] 98 % of control | [9] 103 % of control | dose: 400.0 mg/kg/injection, schedule: Q01DX009 (ip), vehicle: saline with Tween-80 103 % of control

NNC(=O)c1c[nH]c2ccccc2c1=O
inactive: dose: 12.5 mg/kg/injection, schedule: Q01DX009 (ip), vehicle: Klucel (hydroxypropylcellulose) (HPC) 95 % of control | dose: 25.0 mg/kg/injection, schedule: Q01DX009 (ip), vehicle: Klucel (hydroxypropylcellulose) (HPC) 90 % of control | dose: 50.0 mg/kg/injection, schedule: Q01DX009 (ip), vehicle: Klucel (hydroxypropylcellulose) (HPC) 94 % of control

CCCCCCCCC1OC1CCCCCCCC(=O)N1CCN(C)CC1 (stereo not given)
inactive: dose: 75.0 mg/kg/injection, schedule: Q01DX001 (ip), vehicle: carboxymethylcellulose (CMC) 92 % of control | dose: 150.0 mg/kg/injection, schedule: Q01DX001 (ip), vehicle: carboxymethylcellulose (CMC) 97 % of control | dose: 300.0 mg/kg/injection, schedule: Q01DX001 (ip), vehicle: carboxymethylcellulose (CMC) 91 % of control
